US20130136772A1, “REGULATION OF IMMUNE RESPONSE BY COLOCYNTHIN AND/OR ITS DERIVATIVES” (priority 2010, published 2013)

System: cell mediated immune response (DTH)
Test: SRBC induced delayed type hypersensitivity (DTH) response
Type: in vivo, mice
Conditions: for FOOT PAD THICKNESS Mean ± SE: 24 h after SRBC challenge
Protocol: Test material was administered 2 h after immunization of mice by 200 μl of 5×10^9 SRBCs/ml. On 7th day, the thickness of the left hind foot was measured with spheromicrometer (0.01 mm pitch) and was considered as control. These mice were then challenged by injecting the 20 μl of 5×10^9 SRBCs/ml intradermally into the left hind footpad. The footpad thickness was measured again at 24 h after challenge (Doherty, 1981).

**Q.** `CC(=O)OC(C)(C)/C=C/C(=O)[C@](C)(O)[C@H]1[C@H](O)C[C@@]2(C)[C@@H]3CC=C4[C@@H](C=C(O[C@@H]5O[C@H](CO)[C@@H](O)[C@H](O)[C@H]5O)C(=O)C4(C)C)[C@]3(C)C(=O)C[C@]12C` [AD-B-63B, 2-O-β-D-glucopyranosyl cucurbitacin E] was tested. Which “PERCENT INHIBITION (DTH response)” value (1 mg/kg p.o.) did it give?
**A.** 15.21↓ %

**Q.** And the “FOOT PAD THICKNESS Mean ± SE” value (1 mg/kg p.o.)?
**A.** 0.78 ± 0.01 mm

**Q.** And the “PERCENT INHIBITION (DTH response)” value (5 mg/kg p.o.)?
**A.** 28.26↓ %

**Q.** And the “FOOT PAD THICKNESS Mean ± SE” value (5 mg/kg p.o.)?
**A.** 0.66 ± 0.01 mm

**Q.** What about the “PERCENT INHIBITION (DTH response)” value (10 mg/kg p.o.) of the same compound?
**A.** 29.35↓ %

**Q.** What about the “FOOT PAD THICKNESS Mean ± SE” value (10 mg/kg p.o.) of the same compound?
**A.** 0.65 ± 0.02 mm

**Q.** And the “SRBC induced DTH reaction” value (orally administered, graded doses)?
**A.** dose dependent decrease
